Reference: BindingDB's records for doi:10.1007/s00213-002-1073-7 (WestfÄLische Wilhelms-Universit&Auml, 2002)

Experiments:
[1] = target: T1, Alpha-1B adrenergic receptor (Homo sapiens, UniProt P35368)
T1 sequence (P35368 whole entry): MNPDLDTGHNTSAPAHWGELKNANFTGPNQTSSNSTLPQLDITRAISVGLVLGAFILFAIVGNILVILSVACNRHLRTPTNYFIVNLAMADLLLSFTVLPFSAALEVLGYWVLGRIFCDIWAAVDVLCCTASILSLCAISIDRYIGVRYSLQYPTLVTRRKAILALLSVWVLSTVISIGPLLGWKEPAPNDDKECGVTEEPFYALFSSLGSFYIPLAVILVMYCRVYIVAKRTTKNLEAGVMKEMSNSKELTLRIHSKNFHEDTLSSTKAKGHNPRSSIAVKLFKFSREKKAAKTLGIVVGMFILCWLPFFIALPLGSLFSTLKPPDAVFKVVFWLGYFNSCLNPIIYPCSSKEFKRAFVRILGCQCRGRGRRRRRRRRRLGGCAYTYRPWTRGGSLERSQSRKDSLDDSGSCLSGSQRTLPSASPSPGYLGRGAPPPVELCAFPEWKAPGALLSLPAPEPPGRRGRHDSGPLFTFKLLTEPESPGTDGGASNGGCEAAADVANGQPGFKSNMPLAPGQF

[2] = target: T2, Muscarinic acetylcholine receptor M1 (Homo sapiens, UniProt P11229)
T2 sequence (P11229 whole entry): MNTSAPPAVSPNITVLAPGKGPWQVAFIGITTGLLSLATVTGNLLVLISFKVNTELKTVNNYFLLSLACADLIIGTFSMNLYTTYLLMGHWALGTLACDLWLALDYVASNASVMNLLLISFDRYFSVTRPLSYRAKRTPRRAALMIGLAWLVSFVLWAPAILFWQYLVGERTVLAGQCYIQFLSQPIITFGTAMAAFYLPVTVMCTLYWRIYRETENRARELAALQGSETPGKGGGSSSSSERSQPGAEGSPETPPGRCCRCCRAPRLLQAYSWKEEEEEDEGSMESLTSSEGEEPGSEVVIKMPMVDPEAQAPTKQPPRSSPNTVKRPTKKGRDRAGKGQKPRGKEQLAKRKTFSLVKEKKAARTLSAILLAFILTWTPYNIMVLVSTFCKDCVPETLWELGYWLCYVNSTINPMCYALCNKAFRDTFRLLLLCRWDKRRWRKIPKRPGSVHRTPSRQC

[3] = target: Muscarinic acetylcholine receptor M3 (Homo sapiens, UniProt P20309)
Chain of Muscarinic acetylcholine receptor M3 (P20309 whole entry): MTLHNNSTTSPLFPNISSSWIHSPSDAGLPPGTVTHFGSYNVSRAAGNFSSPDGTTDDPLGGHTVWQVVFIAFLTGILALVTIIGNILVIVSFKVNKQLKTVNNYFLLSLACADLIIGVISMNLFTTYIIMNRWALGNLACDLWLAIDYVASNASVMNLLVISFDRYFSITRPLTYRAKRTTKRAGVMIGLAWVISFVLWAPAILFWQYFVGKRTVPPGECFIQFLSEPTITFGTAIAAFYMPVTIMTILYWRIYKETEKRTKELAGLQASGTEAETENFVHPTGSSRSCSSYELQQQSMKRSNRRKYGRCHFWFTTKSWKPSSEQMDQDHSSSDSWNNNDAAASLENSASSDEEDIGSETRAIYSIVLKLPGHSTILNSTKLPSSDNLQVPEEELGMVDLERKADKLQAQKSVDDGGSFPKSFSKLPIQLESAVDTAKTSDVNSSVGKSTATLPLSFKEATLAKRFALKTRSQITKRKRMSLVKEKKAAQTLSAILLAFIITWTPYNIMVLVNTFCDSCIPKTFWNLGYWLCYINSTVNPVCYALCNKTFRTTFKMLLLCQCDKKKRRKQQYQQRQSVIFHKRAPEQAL

[4] = target: 5-hydroxytryptamine receptor 1D (Homo sapiens, UniProt P28221)
Chain of 5-hydroxytryptamine receptor 1D (P28221 whole entry): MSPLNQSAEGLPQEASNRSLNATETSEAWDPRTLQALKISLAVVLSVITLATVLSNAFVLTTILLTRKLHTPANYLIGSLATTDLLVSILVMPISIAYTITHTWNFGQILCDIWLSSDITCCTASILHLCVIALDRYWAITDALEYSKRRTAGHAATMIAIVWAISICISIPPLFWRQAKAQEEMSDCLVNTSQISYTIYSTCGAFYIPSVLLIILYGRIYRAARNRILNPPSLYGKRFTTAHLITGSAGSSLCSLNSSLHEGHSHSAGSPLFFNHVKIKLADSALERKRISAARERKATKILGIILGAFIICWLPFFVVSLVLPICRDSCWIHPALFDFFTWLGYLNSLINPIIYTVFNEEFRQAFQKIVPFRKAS

[5] = target: Sodium-dependent dopamine transporter (Bos taurus, UniProt P27922)
Chain of Sodium-dependent dopamine transporter (P27922 whole entry): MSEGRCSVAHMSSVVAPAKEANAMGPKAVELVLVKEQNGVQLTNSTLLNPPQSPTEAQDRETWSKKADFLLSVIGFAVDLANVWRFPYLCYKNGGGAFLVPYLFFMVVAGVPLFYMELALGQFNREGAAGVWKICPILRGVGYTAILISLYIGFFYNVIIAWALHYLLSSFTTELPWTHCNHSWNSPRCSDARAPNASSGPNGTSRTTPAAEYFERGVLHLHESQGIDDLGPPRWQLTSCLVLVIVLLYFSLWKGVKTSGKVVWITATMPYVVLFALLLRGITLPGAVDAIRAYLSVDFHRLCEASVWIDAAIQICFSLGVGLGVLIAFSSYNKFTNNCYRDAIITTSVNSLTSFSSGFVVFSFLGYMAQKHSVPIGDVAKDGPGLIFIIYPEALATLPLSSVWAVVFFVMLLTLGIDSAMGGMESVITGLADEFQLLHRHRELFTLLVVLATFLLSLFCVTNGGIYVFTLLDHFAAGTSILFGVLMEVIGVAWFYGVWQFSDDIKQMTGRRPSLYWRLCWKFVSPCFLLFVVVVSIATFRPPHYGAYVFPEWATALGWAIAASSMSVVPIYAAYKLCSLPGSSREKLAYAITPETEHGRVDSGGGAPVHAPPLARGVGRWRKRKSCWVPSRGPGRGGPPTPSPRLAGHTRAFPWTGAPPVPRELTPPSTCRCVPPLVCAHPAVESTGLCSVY

[6] = target: T3, Muscarinic acetylcholine receptor M2 (Homo sapiens, UniProt P08172)
T3 sequence (P08172 whole entry): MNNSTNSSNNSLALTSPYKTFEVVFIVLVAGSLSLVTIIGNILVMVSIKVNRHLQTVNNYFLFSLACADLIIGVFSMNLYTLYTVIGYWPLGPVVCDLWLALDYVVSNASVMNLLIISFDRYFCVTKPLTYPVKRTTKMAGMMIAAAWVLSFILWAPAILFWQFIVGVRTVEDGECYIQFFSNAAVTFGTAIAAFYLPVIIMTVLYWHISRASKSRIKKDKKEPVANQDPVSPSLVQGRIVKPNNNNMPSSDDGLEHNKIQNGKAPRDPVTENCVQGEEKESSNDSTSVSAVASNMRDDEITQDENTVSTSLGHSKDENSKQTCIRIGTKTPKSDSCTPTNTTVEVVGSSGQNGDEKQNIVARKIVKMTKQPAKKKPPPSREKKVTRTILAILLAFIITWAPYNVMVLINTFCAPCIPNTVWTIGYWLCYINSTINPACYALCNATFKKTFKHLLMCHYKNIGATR

D(2) dopamine receptor = D(2) dopamine receptor (Rattus norvegicus, UniProt P61169)
Chain of D(2) dopamine receptor (P61169 whole entry): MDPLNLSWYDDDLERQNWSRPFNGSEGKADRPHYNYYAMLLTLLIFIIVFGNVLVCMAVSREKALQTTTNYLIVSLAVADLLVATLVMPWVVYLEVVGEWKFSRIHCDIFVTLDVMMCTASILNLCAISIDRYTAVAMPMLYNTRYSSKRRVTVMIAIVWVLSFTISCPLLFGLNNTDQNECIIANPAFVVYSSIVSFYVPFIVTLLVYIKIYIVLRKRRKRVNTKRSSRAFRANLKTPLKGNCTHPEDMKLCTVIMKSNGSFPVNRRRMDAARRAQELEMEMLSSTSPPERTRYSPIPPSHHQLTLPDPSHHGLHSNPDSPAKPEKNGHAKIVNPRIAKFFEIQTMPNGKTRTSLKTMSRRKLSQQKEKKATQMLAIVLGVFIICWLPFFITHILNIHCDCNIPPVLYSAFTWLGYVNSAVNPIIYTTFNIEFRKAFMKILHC

D(4) dopamine receptor = target: T4, D(4) dopamine receptor (Rattus norvegicus, UniProt P30729)
T4 sequence (P30729 whole entry): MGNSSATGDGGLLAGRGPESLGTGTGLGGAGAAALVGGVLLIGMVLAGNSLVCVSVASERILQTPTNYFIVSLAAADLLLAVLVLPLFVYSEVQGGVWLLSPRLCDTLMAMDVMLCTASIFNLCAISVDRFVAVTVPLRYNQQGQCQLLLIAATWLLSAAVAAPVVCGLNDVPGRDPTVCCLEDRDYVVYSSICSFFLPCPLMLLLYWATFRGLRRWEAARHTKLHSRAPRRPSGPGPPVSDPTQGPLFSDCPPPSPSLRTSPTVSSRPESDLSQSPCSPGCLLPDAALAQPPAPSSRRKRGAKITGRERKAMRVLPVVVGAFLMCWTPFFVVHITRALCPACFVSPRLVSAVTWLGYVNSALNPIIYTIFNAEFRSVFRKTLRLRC

D(3) dopamine receptor = D(3) dopamine receptor (Rattus norvegicus, UniProt P19020)
Chain of D(3) dopamine receptor (P19020 whole entry): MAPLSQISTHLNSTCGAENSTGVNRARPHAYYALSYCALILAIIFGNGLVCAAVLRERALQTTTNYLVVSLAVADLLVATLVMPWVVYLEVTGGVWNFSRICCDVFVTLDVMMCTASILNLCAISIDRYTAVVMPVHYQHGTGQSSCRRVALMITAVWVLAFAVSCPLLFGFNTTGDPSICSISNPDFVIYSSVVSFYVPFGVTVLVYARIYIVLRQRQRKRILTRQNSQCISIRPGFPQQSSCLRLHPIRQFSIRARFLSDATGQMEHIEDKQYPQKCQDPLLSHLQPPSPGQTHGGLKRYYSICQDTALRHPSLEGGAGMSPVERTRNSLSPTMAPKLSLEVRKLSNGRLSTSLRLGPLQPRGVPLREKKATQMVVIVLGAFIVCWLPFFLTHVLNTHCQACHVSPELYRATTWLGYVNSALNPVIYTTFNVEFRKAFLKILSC

[7] = target: 5-hydroxytryptamine receptor 5A (Homo sapiens, UniProt P47898)
Chain of 5-hydroxytryptamine receptor 5A (P47898 whole entry): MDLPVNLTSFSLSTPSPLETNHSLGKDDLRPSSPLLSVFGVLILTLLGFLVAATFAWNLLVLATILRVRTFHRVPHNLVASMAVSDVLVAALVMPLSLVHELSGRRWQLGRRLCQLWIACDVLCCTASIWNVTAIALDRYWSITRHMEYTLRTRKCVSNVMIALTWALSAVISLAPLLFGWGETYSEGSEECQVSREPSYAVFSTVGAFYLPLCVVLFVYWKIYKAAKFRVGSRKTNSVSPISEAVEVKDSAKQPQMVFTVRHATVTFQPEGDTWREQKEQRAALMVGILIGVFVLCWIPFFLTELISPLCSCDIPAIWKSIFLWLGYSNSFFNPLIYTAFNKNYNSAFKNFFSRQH

[8] = target: Beta-1 adrenergic receptor (Rattus norvegicus, UniProt P18090)
Chain of Beta-1 adrenergic receptor (P18090 whole entry): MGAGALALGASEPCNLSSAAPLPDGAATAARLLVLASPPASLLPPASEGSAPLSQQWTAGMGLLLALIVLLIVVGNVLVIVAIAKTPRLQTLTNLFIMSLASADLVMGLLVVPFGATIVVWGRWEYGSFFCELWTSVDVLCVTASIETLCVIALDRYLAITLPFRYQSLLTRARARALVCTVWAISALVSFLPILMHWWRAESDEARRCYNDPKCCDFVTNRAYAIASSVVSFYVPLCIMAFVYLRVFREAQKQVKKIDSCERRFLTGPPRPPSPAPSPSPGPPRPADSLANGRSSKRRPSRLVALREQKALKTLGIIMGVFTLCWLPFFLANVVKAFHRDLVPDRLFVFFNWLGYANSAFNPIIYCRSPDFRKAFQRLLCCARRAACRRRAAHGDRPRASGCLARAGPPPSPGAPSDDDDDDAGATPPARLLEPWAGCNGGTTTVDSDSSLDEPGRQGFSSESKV

Vasopressin V1b receptor = target: T5, Vasopressin V1b receptor (Homo sapiens, UniProt P47901)
T5 sequence (P47901 whole entry): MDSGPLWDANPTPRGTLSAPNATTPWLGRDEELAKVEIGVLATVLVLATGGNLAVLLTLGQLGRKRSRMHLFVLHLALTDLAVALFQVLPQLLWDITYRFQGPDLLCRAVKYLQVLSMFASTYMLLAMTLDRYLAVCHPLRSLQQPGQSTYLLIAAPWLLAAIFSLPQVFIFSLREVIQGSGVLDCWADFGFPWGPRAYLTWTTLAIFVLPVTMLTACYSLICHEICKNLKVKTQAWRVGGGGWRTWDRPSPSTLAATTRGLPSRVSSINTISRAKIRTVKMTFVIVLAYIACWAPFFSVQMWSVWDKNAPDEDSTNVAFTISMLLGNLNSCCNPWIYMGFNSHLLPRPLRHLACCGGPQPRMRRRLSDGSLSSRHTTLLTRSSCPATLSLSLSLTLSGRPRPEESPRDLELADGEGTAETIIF

Row | Compound | Ki [1] [µM] | Ki [2] [µM] | Ki [3] [µM] | Ki [4] [µM] | Ki [5] [µM] | Ki [6] [µM] | Ki (D(2) dopamine receptor) [µM] | Ki (D(4) dopamine receptor) [µM] | Ki (D(3) dopamine receptor) [µM] | Ki [7] [µM] | Ki [8] [µM] | Ki (Vasopressin V1b receptor) [µM]
1 | C[C@@H]1O[C@@H](Oc2c(-c3ccc(O)c(O)c3)oc3cc(O)cc(=O)c-3c2O)[C@H](O)[C@H](O)[C@H]1O | > 10 | > 10 | > 10 | > 10 | > 10 | > 10 | > 10 | > 10 | > 10 | > 10 | > 10 | > 10
2 | O=c1c(O)c(-c2ccc(O)c(O)c2)oc2cc(O)cc(O)c12 [2-(3,4-dihydroxyphenyl)-3,5,7-trihydroxy-chromone;hydrate] | > 10 | > 10 | > 10 | > 10 | > 10 | > 10 | > 10 | 7.85 | > 10 | > 10 | > 10 | > 10
3 | O=c1cc(O)cc2oc(-c3ccc(O)c(O)c3)c(OC3OC(CO)C(O)C(O)C3O)c(O)c1-2 (configuration not stated) [NSC_5318390] | > 10 | > 10 | > 10 | > 10 | > 10 | > 10 | > 10 | > 10 | > 10 | > 10 | > 10 | > 10
4 | CC(C)=CCC[C@]1(C)[C@@H](CC=C(C)C)C[C@]2(CC=C(C)C)C(=O)C(CC=C(C)C)C(=O)[C@]1(C(=O)C(C)C)C2=O (some centres not stated) | > 10 | > 10 | > 10 | > 10 | > 10 | > 10 | > 10 | > 10 | > 10 | > 10 | > 10 | > 10
5 | O=c1cc(O)cc2oc(-c3ccc(O)c(-c4c(O)cc(O)c5c(=O)cc(-c6ccc(O)cc6)oc45)c3)cc(O)c1-2 | > 10 | > 10 | > 10 | > 10 | 0.877 | > 10 | > 10 | > 10 | 1.24 | > 10 | > 10 | > 10
6 | C[C@@H]1O[C@@H](OC[C@H]2O[C@@H](Oc3c(-c4ccc(O)c(O)c4)oc4cc(O)cc(O)c4c3=O)[C@H](O)[C@@H](O)[C@@H]2O)[C@H](O)[C@H](O)[C@H]1O [3-Rhamnoglucosylquercetin] | > 10 | > 10 | > 10 | > 10 | > 10 | > 10 | > 10 | > 10 | > 10 | > 10 | > 10 | > 10
